{"source": "patent US10435415B2", "about": "“Substituted tetrahydrocarbazole and carbazole carboxamide compounds” (BRISTOL-MYERS SQUIBB COMPANY, priority 2013, dated 2019)", "key": {"human recombinant Btk": {"biological_target": "human recombinant Btk (Homo sapiens (Human), UniProt Q06187)", "sequence (Q06187 whole entry)": "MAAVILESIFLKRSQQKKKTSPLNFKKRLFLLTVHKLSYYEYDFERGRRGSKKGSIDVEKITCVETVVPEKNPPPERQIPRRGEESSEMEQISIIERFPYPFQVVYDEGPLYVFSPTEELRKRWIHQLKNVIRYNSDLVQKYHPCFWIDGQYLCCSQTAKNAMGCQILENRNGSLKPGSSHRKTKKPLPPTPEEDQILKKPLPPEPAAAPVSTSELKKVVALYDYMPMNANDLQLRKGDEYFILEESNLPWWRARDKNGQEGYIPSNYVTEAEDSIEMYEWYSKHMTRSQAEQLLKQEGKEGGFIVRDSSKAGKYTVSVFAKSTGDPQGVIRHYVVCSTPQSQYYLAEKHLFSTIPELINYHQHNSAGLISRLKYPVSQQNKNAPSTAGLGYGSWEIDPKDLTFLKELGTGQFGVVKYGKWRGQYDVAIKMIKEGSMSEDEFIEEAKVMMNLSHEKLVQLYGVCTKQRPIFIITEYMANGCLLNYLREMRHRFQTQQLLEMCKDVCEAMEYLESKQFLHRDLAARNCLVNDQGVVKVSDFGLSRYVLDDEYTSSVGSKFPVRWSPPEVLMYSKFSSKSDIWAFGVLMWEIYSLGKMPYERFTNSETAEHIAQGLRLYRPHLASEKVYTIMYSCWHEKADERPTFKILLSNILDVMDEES", "test": "Human Recombinant Btk Enzyme Assay", "type": "biochemical"}, "[1]": {"tested_on": "BCR-stimulated CD69 expression on B cells in human whole blood", "test": "Whole Blood Assay of BCR-Stimulated CD69 Expression on B Cells", "type": "cell-based"}, "Jak2 tyrosine kinase": {"biological_target": "Jak2 tyrosine kinase (Homo sapiens (Human), UniProt O60674)", "sequence (O60674 whole entry)": "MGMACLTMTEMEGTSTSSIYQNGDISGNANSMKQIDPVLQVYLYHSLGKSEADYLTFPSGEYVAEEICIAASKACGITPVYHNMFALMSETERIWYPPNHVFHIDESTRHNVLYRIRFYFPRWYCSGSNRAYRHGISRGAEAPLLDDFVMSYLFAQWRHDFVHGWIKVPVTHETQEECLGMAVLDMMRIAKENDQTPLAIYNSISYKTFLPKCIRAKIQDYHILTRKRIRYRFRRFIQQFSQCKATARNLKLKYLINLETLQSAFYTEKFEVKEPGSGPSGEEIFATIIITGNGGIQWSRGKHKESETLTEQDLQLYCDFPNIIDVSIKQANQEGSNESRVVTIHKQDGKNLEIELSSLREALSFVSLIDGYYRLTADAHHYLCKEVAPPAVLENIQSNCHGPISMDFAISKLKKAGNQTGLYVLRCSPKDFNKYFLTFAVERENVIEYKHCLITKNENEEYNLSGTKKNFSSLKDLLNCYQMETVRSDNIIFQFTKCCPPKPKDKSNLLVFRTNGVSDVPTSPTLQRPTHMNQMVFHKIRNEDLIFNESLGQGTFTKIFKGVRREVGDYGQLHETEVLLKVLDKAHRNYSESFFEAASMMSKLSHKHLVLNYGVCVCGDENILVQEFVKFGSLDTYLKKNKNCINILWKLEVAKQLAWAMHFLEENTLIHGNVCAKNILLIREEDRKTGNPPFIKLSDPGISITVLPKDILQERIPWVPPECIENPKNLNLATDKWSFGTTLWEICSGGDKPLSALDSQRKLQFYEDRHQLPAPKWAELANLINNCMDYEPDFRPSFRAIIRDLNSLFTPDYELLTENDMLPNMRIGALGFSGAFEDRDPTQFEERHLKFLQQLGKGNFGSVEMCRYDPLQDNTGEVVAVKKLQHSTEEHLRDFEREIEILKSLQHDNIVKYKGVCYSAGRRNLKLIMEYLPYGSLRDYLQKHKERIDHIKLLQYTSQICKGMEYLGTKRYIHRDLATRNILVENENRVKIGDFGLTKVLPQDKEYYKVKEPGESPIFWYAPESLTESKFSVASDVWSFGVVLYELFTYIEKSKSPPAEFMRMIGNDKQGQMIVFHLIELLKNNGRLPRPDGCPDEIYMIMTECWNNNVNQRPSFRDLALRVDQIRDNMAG", "test": "Jak2 Tyrosine Kinase Assay", "type": "biochemical", "settings": "selectivity of Btk over Jak2"}}, "note": "Read-outs that look alike come from different tables or passages of the source."}
{"compound": "3-Chloro-4-(R)-(2-chloro-3-(8-fluoro-1-methyl-2,4-dioxo-1,2-dihydroquinazolin-3(4H)-yl)phenyl)-7-(2-hydroxypropan-2-yl)-9H-carbazole-1-carboxamide [Example 45]", "values": [{"measurement": "IC50", "setting": "human recombinant Btk", "result": 0.45, "unit": "nM"}, {"measurement": "IC50", "setting": "[1]", "result": 68, "unit": "nM"}]}
{"compound": "Cc1c(-c2c(Cl)cc(C(N)=O)c3[nH]c4cc(C(C)(C)O)ccc4c23)cccc1-n1c(=O)[nH]c2c(F)cc(F)cc2c1=O", "note": "(single isomer, unassigned) [Example 48]", "values": [{"measurement": "Ratio of Jak2/Btk IC50 values", "setting": "Jak2 tyrosine kinase", "result": 3300}]}
{"compound": "Cc1c(-c2c(F)cc(C(N)=O)c3[nH]c4cc(C(C)(C)O)ccc4c23)cccc1-n1c(=O)[nH]c2c(F)cc(F)cc2c1=O", "note": "(single isomer, unassigned) [Example 50]", "values": [{"measurement": "Ratio of Jak2/Btk IC50 values", "setting": "Jak2 tyrosine kinase", "result": 3800}]}
{"compound": "Cc1c(-c2c(F)cc(C(N)=O)c3[nH]c4cc(C(C)(C)O)ccc4c23)cccc1-n1c(=O)[nH]c2cc(F)ccc2c1=O", "note": "(single isomer, unassigned) [Example 51]", "values": [{"measurement": "Ratio of Jak2/Btk IC50 values", "setting": "Jak2 tyrosine kinase", "result": ">6700"}]}
{"compound": "Cc1c(-c2c(F)cc(C(N)=O)c3[nH]c4cc(C(C)(C)O)ccc4c23)cccc1-n1c(=O)[nH]c2c(Cl)cccc2c1=O", "note": "(single isomer, unassigned) [Example 54]", "values": [{"measurement": "Ratio of Jak2/Btk IC50 values", "setting": "Jak2 tyrosine kinase", "result": 3400}, {"measurement": "IC50", "setting": "[1]; Homo sapiens, B-cell", "result": 10, "unit": "nM"}]}
{"compound": "Cc1c(-c2c(F)cc(C(N)=O)c3[nH]c4c(c23)CC[C@H](C(C)(C)O)C4)cccc1-n1c(=O)[nH]c2c(F)cccc2c1=O", "note": "(single isomer, unassigned) [Example 59]", "values": [{"measurement": "IC50", "setting": "[1]", "result": 260, "unit": "nM"}]}
{"compound": "Cc1c(-c2c(C#N)cc(C(N)=O)c3[nH]c4cc(C(C)(C)O)ccc4c23)cccc1-n1c(=O)cc2c(Cl)cccn2c1=O", "note": "(single isomer, unassigned) [Example 72]", "values": [{"measurement": "Ratio of Jak2/Btk IC50 values", "setting": "Jak2 tyrosine kinase", "result": 1600}]}
{"compound": "Cc1c(-c2c(F)cc(C(N)=O)c3[nH]c4cc(C(C)(C)O)ccc4c23)cccc1-n1c(=O)[nH]c2c(F)cc(F)cc2c1=O", "note": "(single isomer, unassigned) [Example 73]", "values": [{"measurement": "Ratio of Jak2/Btk IC50 values", "setting": "Jak2 tyrosine kinase", "result": 2200}]}
{"compound": "Cc1c(-c2c(F)cc(C(N)=O)c3[nH]c4cc(C(C)(C)O)ccc4c23)cccc1-n1c(=O)[nH]c2c(F)cc(F)cc2c1=O", "note": "[Example 49]", "values": [{"measurement": "Ratio of Jak2/Btk IC50 values", "setting": "Jak2 tyrosine kinase", "result": ">2600"}]}
